Active and inactive are the calls of the source. The calls are words filed in the database; no cut-off is given here.
How the values were obtained:
[1] = molecular target: High affinity cGMP-specific 3',5'-cyclic phosphodiesterase 9A (Homo sapiens, UniProt O76083); test: Inhibition of PDE9A (181 to 506 residues) (unknown origin) using 3H-cGMP as substrate
[2] = molecular target: Dual specificity calcium/calmodulin-dependent 3',5'-cyclic nucleotide phosphodiesterase 1C (Homo sapiens, UniProt Q14123); test: Inhibition of PDE1C2 (147 to 531 residues) (unknown origin) using 3H-cGMP as substrate incubated for 15 mins by liquid scintillation counter analysis
[3] = molecular target: cGMP-dependent 3',5'-cyclic phosphodiesterase (Homo sapiens, UniProt O00408); test: Inhibition of PDE2A (580 to 919 residues) (unknown origin) using 3H-cGMP as substrate
Sequence of cGMP-dependent 3',5'-cyclic phosphodiesterase (O00408 whole entry, the tested form may be a part): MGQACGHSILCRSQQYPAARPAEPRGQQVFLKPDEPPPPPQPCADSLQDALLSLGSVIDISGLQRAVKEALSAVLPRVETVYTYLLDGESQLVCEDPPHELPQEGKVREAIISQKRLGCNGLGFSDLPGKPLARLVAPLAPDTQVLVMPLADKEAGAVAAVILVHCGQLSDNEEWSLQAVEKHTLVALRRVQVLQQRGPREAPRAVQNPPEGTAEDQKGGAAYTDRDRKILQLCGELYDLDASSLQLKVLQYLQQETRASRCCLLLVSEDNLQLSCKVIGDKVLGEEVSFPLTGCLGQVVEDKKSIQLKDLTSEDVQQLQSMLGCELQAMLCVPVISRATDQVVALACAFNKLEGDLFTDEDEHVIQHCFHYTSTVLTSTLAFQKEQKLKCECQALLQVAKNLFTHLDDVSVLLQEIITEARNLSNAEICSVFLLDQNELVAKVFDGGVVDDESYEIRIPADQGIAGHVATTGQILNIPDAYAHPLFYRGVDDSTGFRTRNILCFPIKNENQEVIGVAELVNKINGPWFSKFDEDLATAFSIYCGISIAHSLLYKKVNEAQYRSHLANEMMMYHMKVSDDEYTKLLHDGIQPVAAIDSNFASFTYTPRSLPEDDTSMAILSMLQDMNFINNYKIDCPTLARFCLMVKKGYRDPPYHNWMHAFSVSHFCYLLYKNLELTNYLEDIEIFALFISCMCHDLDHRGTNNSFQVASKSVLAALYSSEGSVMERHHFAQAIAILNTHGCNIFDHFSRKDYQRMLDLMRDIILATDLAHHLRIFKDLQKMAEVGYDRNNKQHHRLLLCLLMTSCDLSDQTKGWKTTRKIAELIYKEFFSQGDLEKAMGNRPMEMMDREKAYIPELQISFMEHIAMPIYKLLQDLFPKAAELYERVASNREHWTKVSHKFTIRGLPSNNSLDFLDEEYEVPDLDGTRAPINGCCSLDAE

[4] = molecular target: T1, High affinity 3',5'-cyclic-AMP phosphodiesterase 7A (Homo sapiens, UniProt Q13946); test: Inhibition of PDE7A (130 to 482 residues) (unknown origin) using 3H-cAMP as substrate
T1 sequence (Q13946 whole entry, the tested form may be a part): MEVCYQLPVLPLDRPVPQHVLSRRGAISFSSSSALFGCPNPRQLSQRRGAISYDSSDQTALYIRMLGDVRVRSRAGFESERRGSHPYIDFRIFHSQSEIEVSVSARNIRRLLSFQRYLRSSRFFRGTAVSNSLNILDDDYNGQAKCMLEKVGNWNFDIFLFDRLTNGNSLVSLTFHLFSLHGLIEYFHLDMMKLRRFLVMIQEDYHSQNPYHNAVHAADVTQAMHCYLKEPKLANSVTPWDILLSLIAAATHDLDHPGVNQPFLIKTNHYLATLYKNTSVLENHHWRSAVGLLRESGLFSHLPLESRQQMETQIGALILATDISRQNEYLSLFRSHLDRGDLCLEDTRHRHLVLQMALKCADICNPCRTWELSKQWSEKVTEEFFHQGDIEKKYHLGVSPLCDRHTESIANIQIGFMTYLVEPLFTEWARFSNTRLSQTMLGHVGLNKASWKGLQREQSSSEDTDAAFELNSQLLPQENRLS

[5] = molecular target: cAMP and cAMP-inhibited cGMP 3',5'-cyclic phosphodiesterase 10A (Homo sapiens, UniProt Q9Y233); test: Inhibition of PDE10A (449 to 770 residues) (unknown origin) using 3H-cAMP as substrate
Sequence of cAMP and cAMP-inhibited cGMP 3',5'-cyclic phosphodiesterase 10A (Q9Y233 whole entry, the tested form may be a part): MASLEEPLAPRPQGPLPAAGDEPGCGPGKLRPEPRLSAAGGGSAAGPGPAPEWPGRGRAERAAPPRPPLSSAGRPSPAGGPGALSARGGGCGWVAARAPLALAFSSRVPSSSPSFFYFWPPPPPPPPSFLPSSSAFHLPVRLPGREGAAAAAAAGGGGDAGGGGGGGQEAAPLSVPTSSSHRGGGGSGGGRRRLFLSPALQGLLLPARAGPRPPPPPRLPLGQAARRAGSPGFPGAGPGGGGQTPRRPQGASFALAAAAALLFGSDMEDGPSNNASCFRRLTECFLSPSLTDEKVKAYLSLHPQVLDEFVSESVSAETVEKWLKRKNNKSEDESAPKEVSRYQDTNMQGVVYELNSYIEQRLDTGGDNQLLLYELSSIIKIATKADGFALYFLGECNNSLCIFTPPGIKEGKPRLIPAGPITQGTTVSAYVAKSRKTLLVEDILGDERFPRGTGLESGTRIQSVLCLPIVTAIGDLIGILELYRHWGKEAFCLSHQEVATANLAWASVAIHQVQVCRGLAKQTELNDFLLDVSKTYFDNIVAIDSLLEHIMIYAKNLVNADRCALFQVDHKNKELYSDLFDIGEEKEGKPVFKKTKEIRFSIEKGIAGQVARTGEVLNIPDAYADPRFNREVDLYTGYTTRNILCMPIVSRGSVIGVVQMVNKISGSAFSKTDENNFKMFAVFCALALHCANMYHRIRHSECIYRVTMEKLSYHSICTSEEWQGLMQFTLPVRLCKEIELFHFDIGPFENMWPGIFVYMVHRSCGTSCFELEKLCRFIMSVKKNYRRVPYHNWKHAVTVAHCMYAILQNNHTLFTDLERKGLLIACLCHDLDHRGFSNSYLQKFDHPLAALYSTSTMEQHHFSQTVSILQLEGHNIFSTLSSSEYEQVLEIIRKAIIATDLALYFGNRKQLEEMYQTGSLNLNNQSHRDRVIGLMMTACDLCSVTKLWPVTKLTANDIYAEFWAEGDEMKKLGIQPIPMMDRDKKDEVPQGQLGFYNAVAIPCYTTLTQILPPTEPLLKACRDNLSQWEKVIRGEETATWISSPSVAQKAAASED

[6] = Selectivity index, ratio of IC50 for inhibition of PDE1C2 (147 to 531 residues) (unknown origin) using 3H-cGMP as substrate to IC50 for inhibition of PDE2A (580 to 919 residues) (unknown origin) using 3H-cGMP as substrate
[7] = Selectivity index, ratio of IC50 for inhibition of PDE1C2 (147 to 531 residues) (unknown origin) using 3H-cGMP as substrate to IC50 for inhibition of PDE4D (86 to 413 residues) (unknown origin) using 3H-cAMP as substrate
[8] = Selectivity index, ratio of IC50 for inhibition of PDE1C2 (147 to 531 residues) (unknown origin) using 3H-cGMP as substrate to IC50 for inhibition of PDE5A (535 to 860 residues) (unknown origin) using 3H-cGMP as substrate
[9] = Selectivity index, ratio of IC50 for inhibition of PDE1C2 (147 to 531 residues) (unknown origin) using 3H-cGMP as substrate to IC50 for inhibition of PDE7A (130 to 482 residues) (unknown origin) using 3H-cAMP as substrate
[10] = Half life in Sprague-Dawley rat at 2.5 mg/kg,iv administration; format: ADME, organism-based; conditions: in vivo
[11] = Cmax in Sprague-Dawley rat at 2.5 mg/kg,iv administration; format: ADME, organism-based; conditions: in vivo
[12] = AUC (0 to infinity) in Sprague-Dawley rat at 2.5 mg/kg,iv administration; format: ADME, organism-based; conditions: in vivo
[13] = Observed clearance in Sprague-Dawley rat at 2.5 mg/kg,iv administration; format: ADME, organism-based; conditions: in vivo
Cytochrome P450 1A2 = molecular target: T2, Cytochrome P450 1A2 (Homo sapiens, UniProt P05177); test: Inhibition of CYP1A2 in human liver microsomes in presence of NADPH; format: ADME, Microsome
T2 sequence (P05177 whole entry): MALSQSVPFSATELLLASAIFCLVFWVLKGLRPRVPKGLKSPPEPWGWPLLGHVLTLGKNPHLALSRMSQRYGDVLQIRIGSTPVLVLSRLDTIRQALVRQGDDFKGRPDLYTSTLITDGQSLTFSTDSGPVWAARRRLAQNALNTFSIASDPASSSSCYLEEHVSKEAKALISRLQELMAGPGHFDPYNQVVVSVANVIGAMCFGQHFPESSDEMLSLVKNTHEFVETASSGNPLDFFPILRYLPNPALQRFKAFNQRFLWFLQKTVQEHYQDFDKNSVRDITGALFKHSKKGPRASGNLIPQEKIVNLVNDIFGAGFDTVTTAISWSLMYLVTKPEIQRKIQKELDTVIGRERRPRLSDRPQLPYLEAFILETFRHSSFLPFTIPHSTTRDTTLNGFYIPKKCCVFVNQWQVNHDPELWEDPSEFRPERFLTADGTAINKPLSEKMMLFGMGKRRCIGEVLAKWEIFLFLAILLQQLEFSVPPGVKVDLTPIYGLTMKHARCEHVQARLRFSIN

Cytochrome P450 2C19 = Cytochrome P450 2C19 (Homo sapiens, UniProt P33261); test: Inhibition of CYP2C19 in human liver microsomes in presence of NADPH; format: ADME, Microsome
Sequence of Cytochrome P450 2C19 (P33261 whole entry): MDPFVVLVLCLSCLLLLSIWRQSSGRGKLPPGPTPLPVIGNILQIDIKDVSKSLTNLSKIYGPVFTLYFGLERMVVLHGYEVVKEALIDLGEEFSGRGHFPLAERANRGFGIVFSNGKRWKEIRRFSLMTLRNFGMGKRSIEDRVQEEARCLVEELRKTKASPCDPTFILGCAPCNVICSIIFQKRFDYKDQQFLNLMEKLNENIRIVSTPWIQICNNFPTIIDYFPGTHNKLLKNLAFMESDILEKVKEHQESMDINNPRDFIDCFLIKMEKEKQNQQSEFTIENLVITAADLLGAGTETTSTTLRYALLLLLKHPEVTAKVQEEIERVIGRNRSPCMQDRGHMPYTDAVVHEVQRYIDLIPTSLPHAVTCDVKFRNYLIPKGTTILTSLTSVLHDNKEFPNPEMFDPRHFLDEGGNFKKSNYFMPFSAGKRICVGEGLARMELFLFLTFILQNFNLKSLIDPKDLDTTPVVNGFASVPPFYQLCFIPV

Cytochrome P450 2C9 = Cytochrome P450 2C9 (Homo sapiens, UniProt P11712); test: Inhibition of CYP2C9 in human liver microsomes in presence of NADPH; format: ADME, Microsome
Sequence of Cytochrome P450 2C9 (P11712 whole entry): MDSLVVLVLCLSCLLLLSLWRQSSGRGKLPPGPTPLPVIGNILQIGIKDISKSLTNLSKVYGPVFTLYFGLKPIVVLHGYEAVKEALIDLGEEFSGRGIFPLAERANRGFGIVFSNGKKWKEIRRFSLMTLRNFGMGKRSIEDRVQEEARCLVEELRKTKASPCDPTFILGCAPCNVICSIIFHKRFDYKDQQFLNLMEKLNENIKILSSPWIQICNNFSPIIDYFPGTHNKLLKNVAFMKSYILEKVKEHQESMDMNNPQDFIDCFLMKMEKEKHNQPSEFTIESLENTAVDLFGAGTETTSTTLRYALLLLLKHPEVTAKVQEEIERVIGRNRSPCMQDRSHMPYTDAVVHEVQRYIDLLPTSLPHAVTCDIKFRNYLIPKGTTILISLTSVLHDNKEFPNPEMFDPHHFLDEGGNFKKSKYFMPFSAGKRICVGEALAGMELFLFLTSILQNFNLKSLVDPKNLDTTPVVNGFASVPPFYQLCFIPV

Cytochrome P450 2D6 = Cytochrome P450 2D6 (Homo sapiens, UniProt P10635); test: Inhibition of CYP2D6 in human liver microsomes in presence of NADPH; format: ADME, Microsome
Sequence of Cytochrome P450 2D6 (P10635 whole entry): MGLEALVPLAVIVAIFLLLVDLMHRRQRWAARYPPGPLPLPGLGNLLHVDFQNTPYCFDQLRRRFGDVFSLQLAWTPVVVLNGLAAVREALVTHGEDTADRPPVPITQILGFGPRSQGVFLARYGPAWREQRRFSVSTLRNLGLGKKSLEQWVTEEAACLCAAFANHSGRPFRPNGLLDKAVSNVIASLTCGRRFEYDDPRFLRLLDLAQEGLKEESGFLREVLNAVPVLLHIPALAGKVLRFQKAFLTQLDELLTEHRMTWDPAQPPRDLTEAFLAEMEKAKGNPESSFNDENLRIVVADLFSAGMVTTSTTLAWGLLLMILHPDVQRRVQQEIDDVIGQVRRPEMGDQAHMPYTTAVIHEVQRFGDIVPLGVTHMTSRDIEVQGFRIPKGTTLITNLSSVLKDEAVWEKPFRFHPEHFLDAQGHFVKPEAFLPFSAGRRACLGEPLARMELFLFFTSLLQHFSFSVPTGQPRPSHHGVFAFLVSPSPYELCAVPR

[14] = Acute toxicity in Kunming mouse assessed as lethal dose at po administration for 14 days; format: organism-based; conditions: in vivo, 336 h, time 14 day
Rattus norvegicus [15] = test: Antifibrotic activity against bile duct ligation induced Sprague-Dawley rat liver fibrosis model assessed as reduction in AST level at 2.5 mg/kg,ip administrated once daily for 21 days; format: functional, organism-based; conditions: time 21.0 day
Rattus norvegicus [16] = test: Antifibrotic activity against bile duct ligation induced Sprague-Dawley rat liver fibrosis model assessed as reduction in fibrotic lesion at 2.5 mg/kg,ip administrated once daily for 21 days by hematoxylin and eosin staining based analysis; format: functional, organism-based; conditions: time 21.0 day
Rattus norvegicus [17] = test: Antifibrotic activity against bile duct ligation induced Sprague-Dawley rat liver fibrosis model assessed as reduction in collagen deposition at 2.5 mg/kg,ip administrated once daily for 21 days by Masson's trichome staining based analysis; format: functional, organism-based; conditions: time 21.0 day
Rattus norvegicus [18] = test: Antifibrotic activity against bile duct ligation induced Sprague-Dawley rat liver fibrosis model assessed as reduction in alpha-smooth muscle actin level in liver at 2.5 mg/kg,ip administrated once daily for 21 days by immunofluorescence staining based analysis; format: functional, organism-based; conditions: time 21.0 day
Rattus norvegicus [19] = test: Antifibrotic activity against bile duct ligation induced Sprague-Dawley rat liver fibrosis model assessed as downregulation of alpha-SMA expression in liver at 2.5 mg/kg,ip administrated once daily for 21 days by Western blotting analysis; format: functional, organism-based; conditions: time 21.0 day
Rattus norvegicus [20] = test: Antifibrotic activity against bile duct ligation induced Sprague-Dawley rat liver fibrosis model assessed as downregulation of collagen I expression in liver at 2.5 mg/kg,ip administrated once daily for 21 days by Western blotting analysis; format: functional, organism-based; conditions: time 21.0 day
Rattus norvegicus [21] = test: Antifibrotic activity against bile duct ligation induced Sprague-Dawley rat liver fibrosis model assessed as increase in cAMP level in liver at 2.5 mg/kg,ip administrated once daily for 21 days by ELISA; format: functional, organism-based; conditions: time 21.0 day
Rattus norvegicus [22] = test: Antifibrotic activity against bile duct ligation induced Sprague-Dawley rat liver fibrosis model assessed as increase in cGMP level in liver at 2.5 mg/kg,ip administrated once daily for 21 days by ELISA; format: functional, organism-based; conditions: time 21.0 day
LX-2 [23] = test: Antifibrotic activity against TGF-beta induced human LX-2 cell activation assessed as downregulation of fibronectin expression incubated for 48 hrs by Western blotting analysis; format: functional, cell-based
LX-2 [24] = test: Antifibrotic activity against TGF-beta induced human LX-2 cell activation assessed as downregulation of alpha-SMA expression incubated for 48 hrs by Western blotting analysis; format: functional, cell-based
[25] = molecular target: T1, High affinity 3',5'-cyclic-AMP phosphodiesterase 7A; test: Inhibition of PDE7A (130 to 482 residues) (unknown origin) using 3H-cAMP as substrate at 5000 nM relative to control

Sequence of High affinity cGMP-specific 3',5'-cyclic phosphodiesterase 9A (O76083 whole entry, the tested form may be a part): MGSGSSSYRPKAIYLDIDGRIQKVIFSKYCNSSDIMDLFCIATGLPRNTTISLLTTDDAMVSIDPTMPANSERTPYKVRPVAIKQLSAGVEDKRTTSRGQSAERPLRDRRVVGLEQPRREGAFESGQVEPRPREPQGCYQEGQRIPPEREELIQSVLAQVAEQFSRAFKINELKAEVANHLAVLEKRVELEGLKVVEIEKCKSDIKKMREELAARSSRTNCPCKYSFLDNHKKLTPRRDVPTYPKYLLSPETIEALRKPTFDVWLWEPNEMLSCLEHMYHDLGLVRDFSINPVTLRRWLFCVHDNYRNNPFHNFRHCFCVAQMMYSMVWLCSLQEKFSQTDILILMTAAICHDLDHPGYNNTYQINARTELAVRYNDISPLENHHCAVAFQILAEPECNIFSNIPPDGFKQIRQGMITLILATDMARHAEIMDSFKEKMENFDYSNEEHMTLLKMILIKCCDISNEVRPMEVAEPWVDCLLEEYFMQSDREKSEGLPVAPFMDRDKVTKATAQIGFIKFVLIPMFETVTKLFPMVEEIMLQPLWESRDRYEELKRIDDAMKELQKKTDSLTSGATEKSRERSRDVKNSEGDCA

CC1=C(C(=O)OCC2CCCCC2)C(c2ccc(OC(F)F)c(OCC3CC3)c2)N(C(=O)SCc2ccccc2)C(=O)N1 (centres undefined)
IC50 [1]: 2.1 µM
IC50 [2]: 0.01 µM
IC50 [3]: 3.54 µM
IC50 [4]: > 5 µM
IC50 [5]: 0.597 µM
Ratio IC50 [6]: 354
Ratio IC50 [7]: 205
Ratio IC50 [8]: 168
Ratio IC50 [9]: > 500
half-life [10]: 7.51 h
Cmax [11]: 25000 ng/mL
AUC(0-inf) [12]: 6320 ng·h/mL
clearance [13]: 6.56 mL/min/kg
IC50 (Cytochrome P450 1A2): > 25 µM
IC50 (Cytochrome P450 2C19): > 25 µM
IC50 (Cytochrome P450 2C9): > 25 µM
IC50 (Cytochrome P450 2D6): > 25 µM
LD [14]: > 1500 mg/kg
Activity (Rattus norvegicus [15]): Active
Activity (Rattus norvegicus [16]): Active
Activity (Rattus norvegicus [17]): Active
Activity (Rattus norvegicus [18]): Active
Activity (Rattus norvegicus [19]): Active
Activity (Rattus norvegicus [20]): Active
Activity (Rattus norvegicus [21]): Active
Activity (Rattus norvegicus [22]): inactive
Activity (LX-2 [23]): Dose-Dependent Effect
Activity (LX-2 [24]): Dose-Dependent Effect
inhibition [25]: < 50%

From ChEMBL document CHEMBL5506023, “Design, Synthesis, and Evaluation of Dihydropyrimidine Derivatives as Selective PDE1 Inhibitors for the Treatment of Liver Fibrosis” (J Med Chem, 2024)
